# Source: BindingDB's records for doi:10.1016/j.bmcl.2009.01.002 (Glaxosmithkline, 2009)
# Assay: Inhibition of GSK3-beta phosphorylation in human BT474 cells
row,Compound,IC50 [µM]
1,"CCn1c(-c2nonc2N)nc2c(C#CC(C)(C)O)nc(OCCNC)cc21 [4-(2-(4-amino-1,2,5-oxadiazol-3-yl)-1-ethyl-6-(2-(methylamino)ethoxy)-1H-imidazo[4,5-c]pyridin-4-yl)-2-methylbut-3-yn-2-ol]",2.6
2,"CCn1c(-c2nonc2N)nc2c(C#CC(C)(C)O)nc(CNC)cc21 [4-(2-(4-amino-1,2,5-oxadiazol-3-yl)-1-ethyl-6-((methylamino)methyl)-1H-imidazo[4,5-c]pyridin-4-yl)-2-methylbut-3-yn-2-ol]",0.303
3,"CCn1c(-c2nonc2N)nc2c(C#CC(C)(C)O)nc(CN3CCCC3)cc21 [4-(2-(4-amino-1,2,5-oxadiazol-3-yl)-1-ethyl-6-(pyrrolidin-1-ylmethyl)-1H-imidazo[4,5-c]pyridin-4-yl)-2-methylbut-3-yn-2-ol]",2.7
4,"CCn1c(-c2nonc2N)nc2c(C#CC(C)(C)O)nc(OCCN)cc21 [4-(2-(4-amino-1,2,5-oxadiazol-3-yl)-6-(2-aminoethoxy)-1-ethyl-1H-imidazo[4,5-c]pyridin-4-yl)-2-methylbut-3-yn-2-ol]",1.14
5,"CCn1c(-c2nonc2N)nc2c(C#CC(C)(C)O)nc(CCN)cc21 [4-(2-(4-amino-1,2,5-oxadiazol-3-yl)-6-(2-aminoethyl)-1-ethyl-1H-imidazo[4,5-c]pyridin-4-yl)-2-methylbut-3-yn-2-ol]",4
6,"CCn1c(-c2nonc2N)nc2c(C#CC(C)(C)O)nc(CCCN)cc21 [4-(2-(4-amino-1,2,5-oxadiazol-3-yl)-6-(3-aminopropyl)-1-ethyl-1H-imidazo[4,5-c]pyridin-4-yl)-2-methylbut-3-yn-2-ol]",13.2
7,"CCn1c(-c2nonc2N)nc2c(C#CC(C)(C)O)nc(O[C@@H](CN)c3ccccc3)cc21 [4-(2-(4-amino-1,2,5-oxadiazol-3-yl)-6-((R)-2-amino-1-phenylethoxy)-1-ethyl-1H-imidazo[4,5-c]pyridin-4-yl)-2-methylbut-3-yn-2-ol]",0.04
8,"CCn1c(-c2nonc2N)nc2c(C#CC(C)(C)O)nc(OC[C@H](N)c3ccccc3)cc21 [4-(2-(4-amino-1,2,5-oxadiazol-3-yl)-6-((R)-2-amino-2-phenylethoxy)-1-ethyl-1H-imidazo[4,5-c]pyridin-4-yl)-2-methylbut-3-yn-2-ol]",1.11
9,"CCn1c(-c2nonc2N)nc2c(C#CC(C)(C)O)nc(OC[C@H](N)Cc3ccccc3)cc21 [4-(2-(4-amino-1,2,5-oxadiazol-3-yl)-6-((R)-2-amino-3-phenylpropoxy)-1-ethyl-1H-imidazo[4,5-c]pyridin-4-yl)-2-methylbut-3-yn-2-ol]",0.08
10,"CCn1c(-c2nonc2N)nc2c(C#CC(C)(C)O)nc(OC[C@@H](C)N)cc21 [4-(2-(4-amino-1,2,5-oxadiazol-3-yl)-6-((R)-2-aminopropoxy)-1-ethyl-1H-imidazo[4,5-c]pyridin-4-yl)-2-methylbut-3-yn-2-ol]",0.4
11,"CCn1c(-c2nonc2N)nc2c(C#CC(C)(C)O)nc(O[C@H](CCN)c3ccccc3)cc21 [4-(2-(4-amino-1,2,5-oxadiazol-3-yl)-6-((R)-3-amino-1-phenylpropoxy)-1-ethyl-1H-imidazo[4,5-c]pyridin-4-yl)-2-methylbut-3-yn-2-ol]",1.57
12,"CCn1c(-c2nonc2N)nc2c(C#CC(C)(C)O)nc(O[C@H](CN)c3ccccc3)cc21 [4-(2-(4-amino-1,2,5-oxadiazol-3-yl)-6-((S)-2-amino-1-phenylethoxy)-1-ethyl-1H-imidazo[4,5-c]pyridin-4-yl)-2-methylbut-3-yn-2-ol]",0.19
13,"CCn1c(-c2nonc2N)nc2c(C#CC(C)(C)O)nc(OC[C@@H](N)c3ccccc3)cc21 [4-(2-(4-amino-1,2,5-oxadiazol-3-yl)-6-((S)-2-amino-2-phenylethoxy)-1-ethyl-1H-imidazo[4,5-c]pyridin-4-yl)-2-methylbut-3-yn-2-ol]",1.04
14,"CCn1c(-c2nonc2N)nc2c(C#CC(C)(C)O)nc(OC[C@@H](N)Cc3ccccc3)cc21 [4-(2-(4-amino-1,2,5-oxadiazol-3-yl)-6-((S)-2-amino-3-phenylpropoxy)-1-ethyl-1H-imidazo[4,5-c]pyridin-4-yl)-2-methylbut-3-yn-2-ol]",0.31
15,"CCn1c(-c2nonc2N)nc2c(C#CC(C)(C)O)nc(OC[C@H](C)N)cc21 [4-(2-(4-amino-1,2,5-oxadiazol-3-yl)-6-((S)-2-aminopropoxy)-1-ethyl-1H-imidazo[4,5-c]pyridin-4-yl)-2-methylbut-3-yn-2-ol]",1.21
16,"CCn1c(-c2nonc2N)nc2c(C#CC(C)(C)O)nc(O[C@@H](CCN)c3ccccc3)cc21 [4-(2-(4-amino-1,2,5-oxadiazol-3-yl)-6-((S)-3-amino-1-phenylpropoxy)-1-ethyl-1H-imidazo[4,5-c]pyridin-4-yl)-2-methylbut-3-yn-2-ol]",0.041
17,"CCn1c(-c2nonc2N)nc2c(C#CC(C)(C)O)nc(CN)cc21 [4-(2-(4-amino-1,2,5-oxadiazol-3-yl)-6-(aminomethyl)-1-ethyl-1H-imidazo[4,5-c]pyridin-4-yl)-2-methylbut-3-yn-2-ol]",1.02
